# Experimental data as given in patent US11932602B2, “Method for preparing nicotinamide mononucleotide cocrystal” (BONTAC BIO-ENGINEERING(SHENZHEN) CO., LTD, priority 2021, dated 2024).
# Settings: screened with a sieve (1.00 mm, No. 18), poured into glass graduated measuring cylinder, apparent volume
# Procedure: The tops were scraped flat. The apparent volumes were recorded. The bulk densities were calculated.
smiles,measurement,value
"NC(=O)c1ccc[n+]([C@@H]2O[C@H](COP(=O)([O-])O)[C@@H](O)[C@H]2O)c1 [Form 1, nicotinamide mononucleotide anhydrous crystal (form 1)]",Bulk density,0.15 g/mL
